Laboratory results taken from patent US20050026959A1, “Ethanol solvate of (-)-cis-2-(2-chloropheny)-5,7-dihydroxy-8-[4R-(3S-hydroxy-1-methyl)piperidinyl]-4H-1benzopyran-4-one” (Aventis Pharma Deutschland GmbH, priority 2000, published 2005).

Assays:
[1] = Hygroscopicity of the solid form; format: physicochemical
From the text: Form II is hygroscopic. It can be used in water free form or in a form with a certain water content. The use in a form, which is essentially free from water is preferred.

[2] = test system: cyclin dependent kinases (CDKs) including CDK1, CDK2, CDK4, CDK6 and CDK7; conditions: cdk1/cyclin B; cdk2/cyclin A; cdk2/cyclin E; cdk4/cyclinD; cdk6/cyclin D; cdk7/cyclin H; Int. J. Oncology 9: 1143-1168 (1996); cited from earlier work

Row | hygroscopicity [1] | Structure (SMILES) | inhibition of cyclin dependent kinases [2]
1 | hygroscopic | CN1CC[C@H](c2c(O)cc(O)c3c(=O)cc(-c4ccccc4Cl)oc23)[C@H](O)C1.Cl (relative stereo) [Form II, (−)-cis-2-(2-chlorophenyl)-5,7-dihydroxy-8-[4R-(3S-hydroxy-1-methyl)piperidinyl]-4H-1-benzopyran-4-one hydrochloride] | –
2 | – | CN1CC[C@H](c2c(O)cc(O)c3c(=O)cc(-c4ccccc4Cl)oc23)[C@H](O)C1 [Flavopiridol, (−)-cis-2-(2-chlorophenyl)-5,7-dihydroxy-8-[4R-(3S-hydroxyl-1-methyl)piperidinyl]-4H-1-benzopyran-4-one] | strong inhibitor
